Test results taken from PubChem BioAssay AID1117330.
The source made the active and inactive calls. How the calls were made is not given here.

The molecules below were run on HT-29 viability, CellTiter-Glo luminescence (assay: cytotoxicity toward HT-29 cells – cell-based, CellTiter-Glo luminescence, IC50, dose response (AID 1117330)).

Structure (SMILES) | IC50
CCCCCCCCCCCCCC[N+](C)(C)C | 1320 nM
OCCN1CCN(CC/C=C2/c3ccccc3Sc3ccc(C(F)(F)F)cc32)CC1 | 1810 nM
O=C1[O][Bi][O]c2ccccc21 | > 20000 nM (inactive)
CC(=O)[O][Hg][c]1ccccc1 | 799 nM
O=C(O)C1(C(=O)O)CCC1.[NH2-].[NH2-].[Pt+2] | > 20000 nM (inactive)
Cc1ccc([N+](=O)[O-])[c]2c1[O][Hg]2 | 1440 nM
